In patent publication US20260297042A1, “BIARYLAMIDE DERIVATIVES AND THEIR USE AS PKMYT1 INHIBITORS” (CANCER RESEARCH TECHNOLOGY LIMITED, priority 2023, published 2026):

What was measured:
[1] = tested on: KYSE-30 cells; assay: Cancer cell line proliferation assay, ATP-based cell viability (Cell Titre Glow), KYSE-30 (normal CCNE1); settings: Homo sapiens, KYSE-30 cells (normal CCNE1), concentration that achieves 50% cell growth proliferation inhibition, read-out: KYSE30 Gl50
Outline: (§1)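 GI50 reflects half-maximal growth inhibition by PKMYT1 inhibitors, derived by curve fitting of CellTiter-Glo luminescence signals.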

[2] = target: T1, Human PKMYT1 (Homo sapiens, UniProt Q99640); assay: PKMYT1 biochemical ADP-Glo enzymatic assay; settings: PKMYT1 kinase domain 15 nM; ADP-Glo; banded values
T1 construct: Human PKMYT1 75-362 was cloned as a TEV cleavable 6xHis fusion; 6xHis (TEV cleavable) (cleaved yes); made in house; host or cells: bacterial cells
T1 sequence (Q99640 75-362): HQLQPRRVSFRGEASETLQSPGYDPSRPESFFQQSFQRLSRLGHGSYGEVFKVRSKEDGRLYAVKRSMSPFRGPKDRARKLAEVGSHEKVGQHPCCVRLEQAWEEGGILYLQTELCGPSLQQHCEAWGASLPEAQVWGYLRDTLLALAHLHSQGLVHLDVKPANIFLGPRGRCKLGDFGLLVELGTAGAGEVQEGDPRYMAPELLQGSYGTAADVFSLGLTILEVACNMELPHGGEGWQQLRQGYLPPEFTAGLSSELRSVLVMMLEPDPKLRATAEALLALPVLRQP
Outline: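 Purified untagged human PKMYT1 75-362 at 15 nM final was tested in HEPES pH 7.5 with MgCl2, EGTA, Brij-35 and 1% DMSO. Intrinsic ATPase activity was measured with 500 uM ATP over 60 min at 26° C. ADP-Glo luminescence was read and IC50 fitted from 10-point, 3-fold dilution curves.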

[3] = tested on: OVCAR 3 cells; assay: Cancer cell line proliferation assay, ATP-based cell viability (Cell Titre Glow), OVCAR 3 (CCNE1-amplified); settings: KYSE30 (normal CCNE1) GI50 vs. OVCAR 3 (CCNE1-amplified) GI50
Outline: as §1

[4] = target: T2, WEE1 (Homo sapiens, UniProt P30291); assay: Selectivity versus WEE1 assay (ADP-Glo enzymatic assay); type: biochemical; settings: for IC50: WEE1 15 nM, ADP-Glo, banded values; for PKMYT1 vs. WEE1 selectivity: fold difference in selectivity for PKMYT1 over WEE1, banded
T2 construct: purchased Thermo Fisher PR7373A
Outline: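 WEE1 at 15 nM final in 50 mM HEPES pH 7.5, 10 mM MgCl2, 1 mM EGTA, 0.01% Brij-35, 1% DMSO; reaction started with 30 µM ATP, 60 min at 26 °C. ADP-Glo luminescence; IC50 from dose-response curves, replicates within 3-fold and r2 >0.9.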

[5] = target: T3, Cellular PKMYT1 Biomarker CDK1 pT14 (Homo sapiens, UniProt Q99640); assay: Inhibition of cellular PKMYT1 biomarker CDK1 pT14 in OVCAR 3 cells (immunoblot); type: cell-based; settings: 20 hours incubation
T3 construct: read-out CDK1 phospho-T14 immunoblot
T3 sequence (Q99640 1-499): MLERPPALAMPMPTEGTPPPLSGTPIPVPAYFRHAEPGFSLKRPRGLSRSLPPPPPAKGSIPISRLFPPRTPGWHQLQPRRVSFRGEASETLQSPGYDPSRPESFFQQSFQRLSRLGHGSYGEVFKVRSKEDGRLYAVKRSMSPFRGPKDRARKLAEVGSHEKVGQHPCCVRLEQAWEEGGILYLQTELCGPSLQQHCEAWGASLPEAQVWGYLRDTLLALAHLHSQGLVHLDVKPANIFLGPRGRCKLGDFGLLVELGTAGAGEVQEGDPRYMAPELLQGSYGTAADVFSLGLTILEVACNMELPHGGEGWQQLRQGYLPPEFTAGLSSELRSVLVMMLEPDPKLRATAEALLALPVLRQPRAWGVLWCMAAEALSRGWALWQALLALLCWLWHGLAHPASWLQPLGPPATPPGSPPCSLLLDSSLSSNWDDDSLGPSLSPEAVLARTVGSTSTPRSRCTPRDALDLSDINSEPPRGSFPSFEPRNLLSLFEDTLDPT
Outline: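 Confluent OVCAR 3 cells treated with a compound concentration range for 20 h at 37 °C. Lysates analysed by automated capillary immunoblot for CDK1 phospho-T14, with vinculin, fluorescence detection; IC50 by regression.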

T2 sequence (P30291 whole entry): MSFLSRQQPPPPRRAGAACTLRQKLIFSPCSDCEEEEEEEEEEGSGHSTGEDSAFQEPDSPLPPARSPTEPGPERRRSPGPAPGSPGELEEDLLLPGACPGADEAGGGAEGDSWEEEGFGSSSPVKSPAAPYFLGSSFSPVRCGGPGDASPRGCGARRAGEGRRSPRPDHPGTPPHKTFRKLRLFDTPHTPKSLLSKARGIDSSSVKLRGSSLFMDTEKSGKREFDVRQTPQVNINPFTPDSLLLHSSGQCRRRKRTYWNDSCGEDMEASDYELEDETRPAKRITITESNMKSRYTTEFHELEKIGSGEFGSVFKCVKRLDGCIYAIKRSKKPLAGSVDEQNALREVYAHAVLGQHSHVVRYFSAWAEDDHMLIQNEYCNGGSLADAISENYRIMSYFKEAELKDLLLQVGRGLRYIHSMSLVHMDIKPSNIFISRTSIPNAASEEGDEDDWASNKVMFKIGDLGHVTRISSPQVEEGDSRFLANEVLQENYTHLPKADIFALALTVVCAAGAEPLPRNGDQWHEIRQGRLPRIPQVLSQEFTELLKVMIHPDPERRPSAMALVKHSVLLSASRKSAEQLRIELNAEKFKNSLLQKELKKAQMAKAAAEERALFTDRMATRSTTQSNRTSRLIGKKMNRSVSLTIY

| SMILES | GI50 [1] [µM] | IC50 [2] [µM] | Selectivity ratio KYSE30 Gl50 vs. OVCAR3 Gl50 [3] | IC50 [4] [µM] | PKMYT1 vs. WEE1 selectivity [4] | IC50 [5] [µM] |
| --- | --- | --- | --- | --- | --- | --- |
| Cc1ccc(O)c(C)c1NC(=O)c1cnc(Nc2cccc(N3CCN(C)CC3)n2)s1 [BAA-423, N-(3-hydroxy-2,6-dimethylphenyl)-2-((6-(4-methylpiperazin-1-yl)pyridin-2-yl)amino)thiazole-5-carboxamide] | 0.5 to 5 | < 0.05 | Y (>20 fold) | 1 to 11 | W (10-<100 fold) | < 0.1 |
| Cc1ccnc(Nc2ncc(C(=O)Nc3c(C)ccc(O)c3C)s2)c1F [BAA-424, 2-((3-fluoro-4-methylpyridin-2-yl)amino)-N-(3-hydroxy-2,6-dimethylphenyl)thiazole-5-carboxamide] | > 5 | < 0.05 | Y (>20 fold) | > 11 | Y (1000-5000 fold) | < 0.1 |
| COc1ccc(F)c(Nc2ncc(C(=O)Nc3c(C)ccc(O)c3C)s2)n1 [BAA-425, 2-((3-fluoro-6-methoxypyridin-2-yl)amino)-N-(3-hydroxy-2,6-dimethylphenyl)thiazole-5-carboxamide] | 0.5 to 5 | < 0.05 | Y (>20 fold) | > 11 | Y (1000-5000 fold) | < 0.1 |
| CCN(C(=O)Cc1cccc(Nc2ncc(C(=O)Nc3c(C)ccc(O)c3C)s2)n1)C1CC1 [BAA-426, 2-((6-(2-(Cyclopropyl(ethyl)amino)-2-oxoethyl)pyridin-2-yl)amino)-N-(3-hydroxy-2,6-dimethylphenyl)thiazole-5-carboxamide] | 0.5 to 5 | < 0.05 | Y (>20 fold) | > 11 | Z (>5000 fold) | < 0.1 |
| Cc1ccc(O)c(C)c1NC(=O)c1cnc(Nc2cccc(CC(=O)N(C3CC3)C3CC3)n2)s1 [BAA-427, 2-((6-(2-(Dicyclopropylamino)-2-oxoethyl)pyridin-2-yl)amino)-N-(3-hydroxy-2,6-dimethylphenyl)thiazole-5-carboxamide] | > 5 | < 0.05 | Y (>20 fold) | > 11 | Z (>5000 fold) | < 0.1 |
| CCOc1ccc(Nc2ncc(C(=O)Nc3c(C)ccc(O)c3C)s2)nc1C [BAA-430, 2-((5-ethoxy-6-methylpyridin-2-yl)amino)-N-(3-hydroxy-2,6-dimethylphenyl)thiazole-5-carboxamide] | > 5 | < 0.05 | Y (>20 fold) | > 11 | Y (1000-5000 fold) | < 0.1 |
| Cc1ccc(O)c(C)c1NC(=O)c1cnc(Nc2cccc(N3CCN(CCO)CC3)n2)s1 [BAA-432, N-(3-hydroxy-2,6-dimethylphenyl)-2-((6-(4-(2-hydroxyethyl)piperazin-1-yl)pyridin-2-yl)amino)thiazole-5-carboxamide] | > 5 | < 0.05 | Y (>20 fold) | 1 to 11 | X (100-<1000 fold) | < 0.1 |
| Cc1ccc(O)c(C)c1NC(=O)c1cnc(Nc2ncnc3[nH]ccc23)s1 [BAA-441, 2-((7H-pyrrolo[2,3-d]pyrimidin-4-yl)amino)-N-(3-hydroxy-2,6-dimethylphenyl)thiazole-5-carboxamide] | > 5 | < 0.05 | Y (>20 fold) | 1 to 11 | W (10-<100 fold) | < 0.1 |
| Cc1ccc2c(Nc3ncc(C(=O)Nc4c(C)ccc(O)c4C)s3)nn(C)c2c1 [BAA-451, 2-((1,6-dimethyl-1H-indazol-3-yl)amino)-N-(3-hydroxy-2,6-dimethylphenyl)thiazole-5-carboxamide] | > 5 | < 0.05 | Y (>20 fold) | 1 to 11 | X (100-<1000 fold) | < 0.1 |
| Cc1ccc(O)c(C)c1NC(=O)c1cnc(Nc2nn(C)c3ccc(F)cc23)s1 [BAA-453, 2-((5-fluoro-1-methyl-1H-indazol-3-yl)amino)-N-(3-hydroxy-2,6-dimethylphenyl)thiazole-5-carboxamide] | > 5 | 0.05 to 1 | Y (>20 fold) | > 11 | X (100-<1000 fold) | < 0.1 |
| CCn1nc(Nc2ncc(C(=O)Nc3c(C)ccc(O)c3C)s2)c2cc(C(F)(F)F)ccc21 [BAA-456, 2-((1-ethyl-5-(trifluoromethyl)-1H-indazol-3-yl)amino)-N-(3-hydroxy-2,6-dimethylphenyl)thiazole-5-carboxamide] | 0.5 to 5 | 0.05 to 1 | X (3-20 fold) | > 11 | Y (1000-5000 fold) | < 0.1 |
| CCn1nc(Nc2ncc(C(=O)Nc3c(C)ccc(O)c3C)s2)c2ccccc21 [BAA-458, 2-((1-ethyl-1H-indazol-3-yl)amino)-N-(3-hydroxy-2,6-dimethylphenyl)thiazole-5-carboxamide] | 0.5 to 5 | < 0.05 | Y (>20 fold) | 1 to 11 | X (100-<1000 fold) | < 0.1 |
| CCn1nc(Nc2ncc(C(=O)Nc3c(C)ccc(O)c3C)s2)c2cc(F)ccc21 [BAA-459, 2-((1-ethyl-5-fluoro-1H-indazol-3-yl)amino)-N-(3-hydroxy-2,6-dimethylphenyl)thiazole-5-carboxamide] | > 5 | 0.05 to 1 | Y (>20 fold) | > 11 | X (100-<1000 fold) | < 0.1 |
| Cc1cn(CCF)nc1Nc1ncc(C(=O)Nc2c(C)ccc(O)c2C)s1 [BAA-470, 2-((1-(2-fluoroethyl)-4-methyl-1H-pyrazol-3-yl)amino)-N-(3-hydroxy-2,6-dimethylphenyl)thiazole-5-carboxamide] | > 5 | < 0.05 | Y (>20 fold) | 1 to 11 | X (100-<1000 fold) | < 0.1 |
